This is an account of results in article PMC3071021 (Bioorganic & medicinal chemistry letters, 2011).

For one assay, the system named is Jurkat cells. The assay is described as follows: Standard MTT assay, Jurkat cells. Type of assay: cell-based. The following applies: listed as CD4.M3.
Assay [1] concerns T6-17 (HER2/neu expressing cells). The assay is described as follows: Standard MTT assay, T6-17 cells. The following applies: listed as CD4.M3. Format: cell-based.

“[Cys^3-Cys^12]-HAbuFCYIGEVEDQCY-OH (disulfide) [CD4, reference compound]”: the “% inhibition of cell growth” value (with Jurkat cells; in assay [1]) was “unaffected” in each case.
